Reference: US20220062281A1, “INHIBITORS TO TARGET HIV-1 NEF-CD80/CD86 IN[…] THERAPEUTIC INTERVENTION” (priority 2018, published 2022)

Tests used:
[1] = target: Nef interaction with CD80 (Human immunodeficiency virus type 1 group M subtype B, UniProt P04601); assay: ELISA primary screen: Nef binding to CD80 cytosolic peptide; parameters: species or system HIV-1; details: CD80 pIC50 value, inhibition of Nef-CD80 binding
Description: (§1) Standard ELISA assay was used to validate the compounds as a primary screen. The basic steps of the assay are outlined in FIG. 1. The cytosolic peptides CD80, CD86 and CD74 are coated on a microplate, while CD80 and CD86 has higher binding capacity with the Nef protein, CD74 is non-specific peptide and is a peptide negative control for Nef binding. The coated plates are incubated overnight at 4° C. The plates were washed 5 times with PBS (0.02% Tween-20) before every step. After washing, the wells were blocked with 5% blotto and incubated at RT with shaking (650 rpm). The plates were washed 5 times with PBS (0.02%-tween20) after every step. Primary antibody […] anti-Nef raised in rabbit dissolved in 2.5% blotto (1:1000) were added and incubated on shaker for 1 hour at RT. Plate was washed and 100 μL anti rabbit raised in donkey dissolved in 2.5% blotto (1:11000) was added and incubated at RT for 45 min. Plate was washed with PBS and TMB substrate solution was added and incubated in dark for 5-10 min. The reaction was stopped with 1N H2SO4 and the absorbance was measured at 450 nm. Positive control (Nef) and Negative control (No peptide with Nef) were analysed for highest binding of Nef with peptide. The absorbance of the plates was measured at 450 nm.
(§2) A throughput screen was performed to pull out the actives. Standard quality control metrics like Z′ were used to qualify plates and Z′ scores were used to identify actives. The IC50 value of the compounds were further determined to evaluate the efficacy of the test compounds.
(§3) The IC50 values of the compounds have been illustrated in Table 1. […] Actives predominantly belong to compounds from Formula I, II and III with IC50s in nano or subnanomolar ranges were selected. Selected compounds were then screened in the cell-based assays systems.

[2] = system: Nef mediated internalization of surface CD80/86 in B/monocyte cells; assay: Cell-based phenotypic screen for downregulation of surface CD80/86 (flow cytometry); details: 100 μM, pre-exposed 2 hrs, then infected with non-replicative retrovirus containing NEF; flow cytometry after 48-72 hrs
Excerpt: CD80 and CD86 are two major co-stimulatory cell surface proteins that are present on antigen presenting cells (APCs) and provide a co-stimulatory signal necessary for activation and survival of the naïve T cells. Both these proteins get down regulated during HIV infection via a Nef mediated pathway. It has been speculated that Nef ability to reduce CD80 and CD86 surface expression in infected cells can prevent the activation of naive T cells, necessary for an efficient recognition and elimination of the target cells. FIG. 2 illustrates that in the presence of the compounds of Formula I, Formula II or Formula III, the binding of Nef with CD80 and CD86 is inhibited thus increasing their expression. The increased expression would activate naïve T cells and aid in eliminating the infection.
Briefly monocyte/B cell lines were either delivered with Nef protein or exposed to replication deficient retrovirus and the levels of surface CD80/86 was evaluated by flow cytometry with/without compound treatment. The compounds were qualified based on the ability to reverse the down regulation of CD80/86 caused by the Nef protein. Similar quality checks were used in the secondary screen as in primary screen. Briefly, B/monocyte cells were preexposed to 100 μM of the 4 compounds for 2 hrs and then infected with non-replicative retrovirus containing NEF. The internalization of surface receptors were measured by flow cytometry after optimal infection (48-72 hrs).

[3] = target: Nef interaction with CD86 (Human immunodeficiency virus type 1 group M subtype B, UniProt P04601); assay: ELISA primary screen: Nef binding to CD86 cytosolic peptide; parameters: species or system HIV-1
Description: as §1, §2, §3

[4] = system: Nef mediated T cell inactivation; assay: T cell activation assay (IL-2 release, B-cell line co-cultured with T cell line); assay type: cell-based; details: 100 μM, B-cell line pre-exposed 1 hr, Nef via protein delivery agent, IL-2 by ELISA after 3 hrs
Excerpt: The appropriate cell system was designed to mimic the biology of the said interactions. FIG. 4(A) represents the principle behind the activation of naïve T cells by the antigen presenting cells (APC), including dendritic cells, B cells, monocytes, macrophages. The activation is based on CD80/86 co-stimulation along with CD3 activation by major histocompatibility complex (MHC) as evidenced by an increase in IL-2 release from the activated T cells.
Representative compounds from the Formula I, II and III were tested in the functional T cell assay and the results are as presented in FIG. 5. B-cell line was pre-exposed to 100 μM of the 4 compounds for 1 hr. The cells were washed and then Nef was introduced via protein delivery agent. The cells were washed again and co-cultured with T cell line. The IL-2 release (as an indicator of activation) was measured by ELISA after 3 hrs. Addition of Nef reduced the T cell activation by more than 50%.

Compound	IC50 [1]	reversal of Nef mediated internalization of CD80/86 [2]	IC50 [3]	reversal of Nef mediated inactivation of T cells (IL-2 release) [4]
Cc1cc(C)n(-c2ncc(-c3ccc([N+](=O)[O-])cc3)cn2)n1 [Compound I1a, 2-(3,5-Dimethyl-1H-pyrazol-1-yl)-5-(4-nitrophenyl)pyrimidine]	0.00234 nM	–	–	–
CN(C)c1ncc(-c2ccccc2)cn1 [Compound I3a, N,N-Dimethyl-5-phenylpyrimidin-2-amine]	0.011 nM	–	–	–
FC(F)(F)c1ccc(-c2cnc(N3CCOCC3)nc2)cc1 [Compound I3b, 4-[5-(4-(Trifluoromethyl)phenyl)pyrimidin-2-yl]morpholine]	0.129 nM	reversal of Nef mediated internalization of CD80/86	1.62 nM	reversed the Nef mediated inactivation
O=C(Oc1ccccc1)n1c(=S)oc2ccccc21 [II1, Phenyl 2-thioxobenzo[d]oxazole-3(2H)-carboxylate]	0.0912 nM	–	–	–
Cc1ccc(OC(=O)Nc2ccc(Cc3ccc(NC(=O)Oc4ccc(C)cc4)cc3)cc2)cc1 [II2d, Di-p-tolyl [methylenebis(4,1-phenylene)]dicarbamate]	10.5 nM	–	513 nM	–
O=C(Nc1ccccc1F)Oc1ccc2ccccc2c1 [II3, Naphthalen-2-yl (2-fluorophenyl)carbamate]	–	reversal of Nef mediated internalization of CD80/86	0.0126 nM	reversed the Nef mediated inactivation
O=C(Nc1ccc(Cl)c(Cl)c1)Nc1cc([N+](=O)[O-])ccc1OC(=O)Nc1ccc(Cl)c(Cl)c1 [II4, 2-[3-(3,4-dichlorophenyl)ureido]-4-nitrophenyl (3,4-dichlorophenyl)carbamate]	0.0275 nM	–	0.275 nM	–
O=C(Oc1cccc(-c2nnco2)c1)N(c1ccccc1)c1ccccc1 [II5, 3-[(1,3,4-oxadiazol-2-yl)phenyl]diphenylcarbamate]	0.00275 nM	–	–	–
Cc1ccc(S(=O)(=O)NNC(=O)c2ccccc2OC(=O)Nc2ccccc2)cc1 [II7, 2-[(2-Tosylhydrazine-1-carbonyl)phenyl]phenylcarbamate]	0.0871 nM	–	–	–
CCCOC(=O)c1ccc(NC(=O)COc2cccc(C)c2)cc1 [III1e, Propyl 4-[2-(m-tolyloxy)acetamido]benzoate]	2.34 nM	–	–	–
Cc1cc(C)cc(OCC(=O)Nc2ccc(C(=O)O)c(O)c2)c1 [III2a, 4-[2-(3,5-dimethylphenoxy)acetamido]-2-hydroxybenzoic acid]	0.00447 nM	reversal of Nef mediated internalization of CD80/86	–	reversed the Nef mediated inactivation
CC(Oc1ccccc1)C(=O)Nc1ccc(C(=O)O)cc1 (stereo not shown) [III2b, 4-(2-Phenoxypropanamido)benzoic acid]	1.12 nM	–	–	–
CCOC(=O)c1ccc(NC(=O)C(C)(C)Oc2ccc(Cl)cc2)cc1 [III2c, Ethyl 4-[2-(4-chlorophenoxy)-2-methylpropanamido]benzoate]	1.51 nM	–	–	–
